Results reported in article PMC10349806 (Nature Communications, 2023).
Several values for one entry are separate records, joined by “and”; a condition that tells them apart may be missing. Identical values can stand only once.

How the values were obtained:
PfCRT variant E207I = experiment: CQ uptake assay, oocytes expressing E207I; format: cell-based, Plasmodium falciparum
Procedure: (§1) Site-directed mutagenesis of PfCRT^Dd2 was performed as described using the megaprimer method with overlap extension[21],[54]. The primer pairs used are listed in Supplementary Table 6. Please note that a codon-optimized and oocyte-adapted version of PfCRT^Dd2 was used[22] (Supplementary Fig. 16). The resulting DNA fragment was cloned into the SP64T expression vector and verified by sequencing.
(§2) Oocytes were obtained as described previously. Briefly, adult (>2 years old) female X. laevis frogs (NASCO) were anesthetized in a cooled solution of ethyl 3-amino benzoate methanesulfonate (0.1%, w/v), followed by a surgical removal of parts of the ovary. The ovary lobes were carefully dissected and small pieces of oocytes were incubated in Ca^2+-free ND96 buffer (96 mM NaCl, 2 mM KCl, 1 mM MgCl2 buffered with 5 mM HEPES/NaOH, pH 7.5) supplemented with collagenase D (0.1%, w/v; Roche), BSA (0.5%, w/v), and 9 mm Na2HPO4 at 18 °C for 14-16 h while gentle shaking. After incubation, the oocytes were carefully washed several times with ND96 buffer (96 mM NaCl, 2 mM KCl, 1.8 mM CaCl2, 1 mM MgCl2 buffered with 5 mM HEPES/NaOH, pH 7.5) supplemented with 100 mg l^−1 gentamycin). Defolliculated and healthy-looking stage V-VI oocytes were manually selected for RNA microinjection. The RNA was generated as following: The codon-optimized sequences of PfCRT variants were cloned into the pSP64T expression vector. After vector linearization using the restriction endonucleases BamHI or SalI (New England Biolabs), transcription was performed using the in vitro SP6 mMessage mMachine Kit (Ambion)[34]. The obtained RNA was kept at −80 °C and diluted with nuclease-free water to a concentration of 0.6 μg μl^−1. Precision-bore glass capillary tubes (3.5-inch glass capillaries; Drummond Scientific Co.) were pulled on a vertical puller (P-87 Flaming/Brown micropipette puller, Sutter Instrument Co.), graduated, and placed on a microinjector (Nanoject II Auto-Nanoliter Injector, Drummond Scientific Co.). 50 nl of nuclease-free water alone (control oocytes) or 50 nl of 0.6 μg μl^−1 RNA were injected under stereomicroscopic control. Injected oocytes were incubated for 46–72 h at 18 °C with twice-daily buffer changes before usage in experiments.
Drug uptake assays were performed as described previously[21],[22],[24],[34]. […] The direction of radio-labeled drug transport is here from the mostly acidic extracellular solution (pH 4.5 or 6.0, as indicated) into the oocyte cytosol (pH ∼ 7.2), which corresponds to the efflux of drug from the acidic digestive vacuole (pH 5.2) into the parasite cytoplasm (pH 7.2). The topology of PfCRT in the oolemma is such that both the N- and C-terminus face the extracellular milieu[3],[22]. In the parasite, the N- and C-terminus face the lumen of the digestive vacuole. […] For determination of the amount of drug uptake for each oocyte, the reaction medium was removed and the oocytes were washed three times with 2 ml of ice-cold ND96 buffer. Each oocyte was individually transferred to a scintillation vial containing 5% sodium dodecyl sulfate (200 μl) for lysis. […] Oocytes that were injected with water instead of RNA were analyzed in parallel, representing the uptake of a drug by diffusion and/or endogenous permeation pathways. The resulting value represents the “background“ level of drug accumulation in oocytes (in-depth discussion in[22]). The specific PfCRT-mediated uptake was determined by subtracting the corresponding background value measured in water-injected oocytes from that of PfCRT-expressing oocytes. In all cases, at least three separate experiments were performed on oocytes from different frogs (biological replicate), and for each condition in an experiment, measurements were made from 10 oocytes per treatment. For pH 5.5, 6.0, and 6.5, ND96 was buffered with 5 mM MES/Tris base.

PfCRT variant F319A = experiment: CQ uptake assay, oocytes expressing F319A; format: cell-based, Plasmodium falciparum
Procedure: as §1, §2
Drug uptake assays were performed as described previously[21],[22],[24],[34]. […] The direction of radio-labeled drug transport is here from the mostly acidic extracellular solution (pH 4.5 or 6.0, as indicated) into the oocyte cytosol (pH ∼ 7.2), which corresponds to the efflux of drug from the acidic digestive vacuole (pH 5.2) into the parasite cytoplasm (pH 7.2). The topology of PfCRT in the oolemma is such that both the N- and C-terminus face the extracellular milieu[3],[22]. In the parasite, the N- and C-terminus face the lumen of the digestive vacuole. CQ uptake kinetics were performed by incubating oocytes in ND96 buffer adjusted to a pH of 4.5, 5.0, 5.5, or 6.0 and supplemented with 50 nM [^3H]CQ and one of 7 different CQ concentrations (10 µM, 50 µM, 100 µM, 200 µM, 300 µM, 400 µM, 500 µM CQ). The reaction was stopped at the 60 min time point, which is in the linear uptake range[22],[34] (Supplementary Fig. 17). […] The radioactivity of each sample was measured using a liquid scintillation analyzer Tri-Carb 4910 TR (PerkinElmer). Oocytes that were injected with water instead of RNA were analyzed in parallel, representing the uptake of a drug by diffusion and/or endogenous permeation pathways. […]

[1] = E207I, 50 µM CQ, 1 h, mean ± SEM
[2] = F319A, 50 µM CQ, 1 h, mean ± SEM

## CCN(CC)CCCC(C)Nc1ccnc2cc(Cl)ccc12 (centres unmarked) [CQ, chloroquine]
PfCRT variant E207I; [1]
  Activity at pH 4.5: 2.05 ± 0.22 pmol h-1 oocyte-1
  Activity at pH 6.0: 2.15 ± 0.11 pmol h-1 oocyte-1
PfCRT variant E207I; E207I, CQ transport at pH 4.5 / pH 6.0
  R-value: 0.95 ± 0.01
PfCRT variant E207I; pH 4.5, individual replicates, Fig 6b
  E207I transport activity pH 4.5: 2.06 pmol oocyte-1 h-1 and 2.31 pmol oocyte-1 h-1
PfCRT variant E207I; pH 6.0, individual replicates, Fig 6b
  E207I transport activity pH 6.0: 2.16 pmol oocyte-1 h-1 and 1.90 pmol oocyte-1 h-1 and 2.38 pmol oocyte-1 h-1
PfCRT variant E207I; ratio of activity pH 4.5 / pH 6.0
  E207I R-value: 0.95 and 0.93 and 0.97
PfCRT variant F319A; [2]
  Activity at pH 4.5: 0.90 ± 0.25 pmol h-1 oocyte-1
  Activity at pH 6.0: 3.64 ± 0.45 pmol h-1 oocyte-1
PfCRT variant F319A; F319A, CQ transport at pH 4.5 / pH 6.0
  R-value: 0.26 ± 0.07
PfCRT variant F319A; pH 4.5, single replicates, Fig 1d left
  F319A transport activity pH 4.5: 0.43 pmol oocyte-1 h-1 and 1.48 pmol oocyte-1 h-1 and 0.80 pmol oocyte-1 h-1
PfCRT variant F319A; pH 6.0, single replicates, Fig 1d left
  F319A transport activity pH 6.0: 4.19 pmol oocyte-1 h-1 and 3.55 pmol oocyte-1 h-1 and 3.19 pmol oocyte-1 h-1
